ChEMBL document CHEMBL5247643, “Discovery and Characterization of BAY-805, a Potent and Selective Inhibitor of Ubiquitin-Specific Protease USP21” (J Med Chem, 2023)
Calls of active or inactive are those of the source. No cut-off for these calls is given here.

What was measured:
[1] = target: T1, Ubiquitin carboxyl-terminal hydrolase 2 (Homo sapiens, UniProt O75604); experiment: Inhibition of human His-tagged USP2 (259 to 605 residues) using ubiquitin rhodamine 110 110 as substrate preincubated for 15 to 20 mins followed by enzyme addition and measured after 25 mins by fluorometric assay
T1 sequence (O75604 whole entry): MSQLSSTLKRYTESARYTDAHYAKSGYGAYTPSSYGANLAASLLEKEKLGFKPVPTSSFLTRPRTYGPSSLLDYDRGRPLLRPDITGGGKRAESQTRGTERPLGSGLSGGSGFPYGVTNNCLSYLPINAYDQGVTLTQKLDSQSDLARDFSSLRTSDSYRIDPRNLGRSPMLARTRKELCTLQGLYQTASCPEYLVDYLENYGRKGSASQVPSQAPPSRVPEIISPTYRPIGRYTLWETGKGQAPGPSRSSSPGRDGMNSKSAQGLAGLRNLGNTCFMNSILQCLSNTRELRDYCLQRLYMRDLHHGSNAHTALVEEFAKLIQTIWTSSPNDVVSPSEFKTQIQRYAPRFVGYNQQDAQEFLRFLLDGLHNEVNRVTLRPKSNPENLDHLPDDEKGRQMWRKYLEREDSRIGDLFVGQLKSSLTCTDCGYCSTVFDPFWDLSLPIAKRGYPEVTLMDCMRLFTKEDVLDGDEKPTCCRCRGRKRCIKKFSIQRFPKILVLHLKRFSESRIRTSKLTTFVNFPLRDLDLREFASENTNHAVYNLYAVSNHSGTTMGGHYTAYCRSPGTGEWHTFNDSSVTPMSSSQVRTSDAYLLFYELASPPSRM

[2] = target: T2, Ubiquitin carboxyl-terminal hydrolase 21 (Homo sapiens, UniProt Q9UK80); experiment: Inhibition of human full length USP21 using Btn-Ahx-PNIRFLD-K(Ubi)-LPQQT-GD-amide as substrate preincubated for 15 to 20 mins followed by substrate addition and measured after 25 mins by HTRF assay
T2 sequence (Q9UK80 whole entry): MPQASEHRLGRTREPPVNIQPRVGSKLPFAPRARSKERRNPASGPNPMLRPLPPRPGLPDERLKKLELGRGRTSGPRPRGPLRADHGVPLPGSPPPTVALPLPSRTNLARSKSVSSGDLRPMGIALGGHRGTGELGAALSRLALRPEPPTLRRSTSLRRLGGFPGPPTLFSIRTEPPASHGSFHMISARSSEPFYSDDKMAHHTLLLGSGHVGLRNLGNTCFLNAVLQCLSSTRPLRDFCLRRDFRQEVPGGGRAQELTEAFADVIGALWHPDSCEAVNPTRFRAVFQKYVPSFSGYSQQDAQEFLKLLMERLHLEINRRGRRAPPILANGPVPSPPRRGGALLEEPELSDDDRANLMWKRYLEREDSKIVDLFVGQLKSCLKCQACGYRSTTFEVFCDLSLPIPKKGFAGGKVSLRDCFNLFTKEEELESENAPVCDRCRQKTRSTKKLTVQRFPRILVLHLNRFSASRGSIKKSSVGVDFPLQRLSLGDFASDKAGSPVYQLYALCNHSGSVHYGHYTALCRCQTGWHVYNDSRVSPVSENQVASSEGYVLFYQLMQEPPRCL

MOLM-13 = experiment: Antiproliferative activity against human MOLM-13 cells assessed as reduction in cell viability up to 30 uM incubated for 72 hrs by CellTiter-Glo luminescent assay; assay type: functional, cell-based
MDA-MB-231 = experiment: Antiproliferative activity against human MDA-MB-231 cells assessed as reduction in cell viability up to 30 uM incubated for 72 hrs by CellTiter-Glo luminescent assay; assay type: functional, cell-based
U2OS = experiment: Antiproliferative activity against human U2OS cells assessed as reduction in cell viability up to 30 uM incubated for 72 hrs by CellTiter-Glo luminescent assay; assay type: functional, cell-based
A549 = experiment: Antiproliferative activity against human A549 cells assessed as reduction in cell viability up to 30 uM incubated for 72 hrs by CellTiter-Glo luminescent assay; assay type: functional, cell-based
Jurkat = experiment: Antiproliferative activity against human Jurkat cells assessed as reduction in cell viability up to 30 uM incubated for 72 hrs by CellTiter-Glo luminescent assay; assay type: functional, cell-based

COCC(NC(=O)C1CCCC1)C(=O)Nc1nnc(Cc2ccc([N+](=O)[O-])cc2)s1 (racemic)
IC50 [1]: 25 µM

N#Cc1ccc(Cc2nnc(NC(=O)[C@H](NC(=O)C3(C(F)(F)F)CCCCC3)C3CCCC3)s2)cc1
IC50 [2]: 0.012 µM

CC(C)C[C@@H](NC(=O)C1(C(F)(F)F)CCCCC1)C(=O)Nc1nnc(Cc2ccc(C#N)cc2)s1
Activity (MOLM-13): inactive
Activity (MDA-MB-231): inactive
Activity (U2OS): inactive
Activity (A549): inactive
Activity (Jurkat): inactive
